Converted amounts (≈) assume the structure as drawn.
conditions: buffer; pH 7.4; 200.0 µM

Row | SMILES | solubility kinetic [µg/mL]
1 | COc1ccc(-c2nc3c(s2)CN(S(C)(=O)=O)CC3)cc1OC | 10.6 (≈ 29.9 µM)
2 | O=C(O)CCCCCNC(=O)/C=C/c1ccco1 | 26.2 (≈ 104 µM)
3 | O=C(O)C1CCC(CNS(=O)(=O)c2ccccc2)CC1 (centres undefined) | > 44.6
4 | Cc1cccc(NC(=O)c2cccnc2Oc2ccccc2)c1C(=O)O | > 52.3
5 | CCCCNC(=O)OCCSCCS(=O)(=O)c1ccc(Cl)cc1 | 0.9 (≈ 2.37 µM)
6 | O=C(Nc1ccc(O)cc1)c1ccc(NC(=O)c2cccs2)cc1 | 0.8 (≈ 2.36 µM)
7 | Cn1c(=O)[nH]c(=O)c2c1nc1n2CCS1 | 31 (≈ 138 µM)
8 | CC(C)(C)C(=O)OC/C(N)=N/OC(=O)c1ccc(Cl)cc1 | 1.6 (≈ 5.12 µM)
9 | COCCNC(=O)c1ccccc1NC(=O)CSc1ccc(C)cc1 | 36.6 (≈ 102 µM)
10 | Cc1ccc(NC(=O)C2=NNC(=O)CC2)cc1F | > 37.4
11 | CC(C)N(Cc1ccccc1)C(=S)Nc1ccc(F)cc1 | 45.1 (≈ 149 µM)
12 | CNP(=O)(Oc1ccccc1)OC12CC3CC(CC(C3)C1)C2 (centres undefined) | > 48.2
13 | O=C(/C=C/c1ccco1)NCCc1ccc(F)cc1 | 10.3 (≈ 39.7 µM)
14 | COc1ccc(CN=C(N)N=C(N)N)cc1Cl.Cl | > 43.8
15 | Cc1onc(-c2ccccc2)c1NC(=O)N(Cc1ccccc1)C(C)C | 22.7 (≈ 65 µM)
16 | Cc1ccc(C)c(NC(=O)CCN2C(=O)c3ccccc3C2=O)c1 | 1.2 (≈ 3.72 µM)
17 | CCc1nc2ccc(C(=O)Nc3ccc4c(c3)OCO4)cc2nc1CC | 1.6 (≈ 4.58 µM)
18 | c1ccc(CC2CCCCN2)cc1 (centres undefined) | 7.7 (≈ 43.9 µM)
19 | CCNC(=O)c1cc(S(=O)(=O)N2CCSCC2)ccc1OC | 45.1 (≈ 131 µM)
20 | COc1ccc(NC(=O)C23CC4CC(CC(Cl)(C4)C2)C3)cc1S(=O)(=O)N1CCOCC1 | 3.3 (≈ 7.04 µM)
21 | CCc1ccc(N2CC(C)Cn3c2nc2c3c(=O)[nH]c(=O)n2C)cc1 (centres undefined) | 7.3 (≈ 21.5 µM)
22 | CCN1CCN(C/C(C)=C/c2ccccc2)CC1 | 27.2 (≈ 111 µM)
23 | COc1ccc(N2CC(C(=O)NC3=NCCS3)CC2=O)cc1 (centres undefined) | > 47.9
24 | CCc1c(C)c(C#N)c2[nH]c3ccccc3n2c1=S | 6.6 (≈ 24.7 µM)

Row | SMILES | solubility kinetic [µg/mL]
25 | CCc1nnc(NC(=O)c2cc(C)nc3ccccc23)s1 | > 44.8
26 | O=C(CNC(=O)c1ccccc1Cl)OC1CCOC1=O (centres undefined) | 42.1 (≈ 141 µM)
27 | COc1cc2c(cc1OC)/C(=C/C(=O)c1cccc([N+](=O)[O-])c1)NCC2 | 0.5 (≈ 1.41 µM)
28 | Cc1ccc(NCC(O)Cn2cnc3c2c(=O)n(C)c(=O)n3C)cc1 (centres undefined) | 31.8 (≈ 92.6 µM)
29 | NC(=S)NC1CC2CC1C1C=CCC21 (centres undefined) | > 31.2
30 | CCN(CC(=O)N1CCCCC1)S(=O)(=O)c1ccccc1 | 42.4 (≈ 137 µM)
31 | CC(C)(C)c1ccc(N2C(=N)SCC2=O)cc1 | 15.8 (≈ 63.6 µM)
32 | CC1(C)C2([N+](=O)[O-])CN3CC1([N+](=O)[O-])CN(C2)C3c1ccc(O)c(O)c1 (centres undefined) | 3.5 (≈ 9.61 µM)
33 | O=S(=O)(/N=C(\[O-])C[n+]1ccccc1)c1ccc(Cl)cc1 | > 46.6
34 | O=C(Nc1ccc2[nH]c(=O)[nH]c2c1)C(F)(F)F | 23.9 (≈ 97.5 µM)
35 | O=C(O)c1cccc(NC(=O)c2ccccc2NC(=O)c2ccco2)c1 | > 52.5
36 | Cc1cccc(C)c1NC(=O)COC(=O)[C@@H]1CCCN1C(=O)c1cccs1 | > 58
37 | CN(Cc1ccccc1)C(=O)COC(=O)c1ccc(Cl)cc1N | 2.4 (≈ 7.21 µM)
38 | O=S(=O)(c1ccc(Br)cc1)N1CCCC1 | 41.5 (≈ 143 µM)
39 | Cc1cccc(N2Cc3ccc(Br)cc3C2)c1 | 4.8 (≈ 16.7 µM)
40 | Cc1cccc(C)c1NC(=O)CN1C(=O)COc2ccccc21 | 6 (≈ 19.3 µM)
41 | COc1cc(OC)cc(C(=O)Nc2cccc3c2CCCC3)c1 | < 0.7
42 | CCc1onc(C)c1C(=O)Nc1ccc2c(c1)OCO2 | > 41.1
43 | Cc1ccc(-c2nc3ncccc3n2O)cc1 | > 33.8
44 | COCCCNC(=S)Nc1cc(C)c(C)cc1C | > 40
45 | CCc1ccc(C(=O)COC(=O)CNC(=O)C2CCCCC2)cc1 | 18.1 (≈ 54.6 µM)
46 | Cc1ccc(S(=O)(=O)N2CCN(C(=O)c3cccs3)CC2)cc1C | 44.4 (≈ 122 µM)
47 | CCOC(=O)C1=C(C)OC(N)=C(C#N)C1c1cccs1 (centres undefined) | 17.1 (≈ 58.9 µM)
48 | CN1C(=O)/C(=C/c2coc3ccc(O)cc3c2=O)SC1=S | < 0.7

Row | SMILES | solubility kinetic [µg/mL]
49 | CCOc1ccc(C(=O)COC(=O)CNC(=O)C2CCCCC2)cc1 | 9.5 (≈ 27.3 µM)
50 | CCN(c1ccccc1)S(=O)(=O)c1cc(NC(=O)C2CC2)ccc1Cl | 26.2 (≈ 69.2 µM)
51 | NC(=O)CCCc1nc(-c2ccccc2)no1 | > 34.7
52 | CCOc1ccccc1NS(=O)(=O)c1ccc2oc(=O)ccc2c1 | 43.6 (≈ 126 µM)
53 | Cc1ccc(N2CCN(C(=S)Nc3ccccc3C)CC2)cc1 | 0.6 (≈ 1.84 µM)
54 | O=C(COC(=O)/C=C/c1ccc(OC(F)F)cc1)Nc1cccc(S(=O)(=O)N2CCOCC2)c1 | 7.3 (≈ 14.7 µM)
55 | NC(=O)COC(=O)c1cc(-c2ccco2)nc2ccccc12 | 39.9 (≈ 135 µM)
56 | N#CC1(NC(=O)COc2ccccc2[N+](=O)[O-])CCCCC1 | > 45.5
57 | N#Cc1ccc(-c2nc3ccccc3c(=O)n2O)cc1 | > 39.5
58 | Cn1c(NC2CCCCC2)c(N=O)c(=O)n(C)c1=O | > 39.9
59 | O=C(Nc1ccc(-c2ccc([N+](=O)[O-])cc2)cc1)c1ccccc1F | < 0.4
60 | N#Cc1ccc(OCC(=O)Nc2ccc(S(=O)(=O)N3CCOCC3)cc2)cc1 | 5.5 (≈ 13.7 µM)
61 | COc1ccc(NC(=O)c2ccc(N3CCCC3=O)cc2)cc1Cl | 2.1 (≈ 6.09 µM)
62 | COC(=O)c1sc(NC(=O)c2ccncc2)nc1C | 27.3 (≈ 98.4 µM)
63 | CCN1CCN(c2nc(NCCO)c3ccccc3n2)CC1.Cl | 48
64 | O=C(/C(=C(\O)c1ccccc1)c1ncc[nH]1)c1ccccc1 | 9.5 (≈ 32.7 µM)
65 | O=C(CN1c2cccc3cccc(c23)S1(=O)=O)Nc1ccccc1Br | 4.4 (≈ 10.5 µM)
66 | CN(C)C(CNc1ncnc2ccccc12)c1c(F)cccc1Cl (centres undefined) | 49.4 (≈ 143 µM)
67 | Cc1csc(NC(=O)c2ccc(COc3ccccc3)o2)n1 | 3.3 (≈ 10.5 µM)
68 | CC(CCc1ccccc1)NCC#N.Cl (centres undefined) | 31.1
69 | COc1ccc(CNc2nc3ccccc3n2C)c(OC)c1 | > 44.6
70 | Cc1cc(=O)[nH]c(SCC(=O)NC2CCCCC2)n1 | 32.3 (≈ 115 µM)
71 | O=C(Nc1ccc(Cl)cc1)/C(=C1\CCCN1)[N+](=O)[O-] | 1 (≈ 3.55 µM)
72 | COc1cccc(OCCNS(=O)(=O)c2cccc([N+](=O)[O-])c2)c1 | 46.6 (≈ 132 µM)

Row | SMILES | solubility kinetic [µg/mL]
73 | Cc1cc(C)c2c(CN3CCC(C)CC3)cc(=O)oc2c1C | 1.1 (≈ 3.67 µM)
74 | CCOC(=O)C1=C(C)N(CC(C)C)C(=O)C1 | > 33.8
75 | Cc1nc(Cl)sc1C(=O)Nc1ccccc1Cl | 21.7 (≈ 75.6 µM)
76 | COc1ccc(C)cc1S(=O)(=O)N1CCCCCC1 | 40.7 (≈ 144 µM)
77 | COc1ccc(C(=O)N(c2ccccn2)C2CCCCC2)c(OC)c1 | 49.9 (≈ 147 µM)
78 | OCCN(CC#CCC(O)(c1ccccc1)C1CCCC1)CCO (centres undefined) | > 49.7
79 | Cc1cccc(N=Cc2c(O)n(C)c(=O)n(C)c2=O)c1 | 10 (≈ 36.6 µM)
80 | Fc1ccc(-c2c[nH]c(=S)n2Cc2ccccc2)cc1 | 1.4 (≈ 4.92 µM)
81 | COc1ccccc1CNc1ncccc1[N+](=O)[O-] | 1.3 (≈ 5.01 µM)
82 | CCN(c1ccccc1)c1nc2nonc2nc1NCCO | > 45
83 | COc1ccc(C(=O)CC(=O)C(=O)Nc2ccc(C)c(C)c2)cc1 | 12.4 (≈ 38.1 µM)
84 | O=C(COc1ccc2ccccc2c1)NCC1CCCO1 (centres undefined) | 36.9 (≈ 129 µM)
85 | CC(NC(=O)NC(=O)c1ccc(Cl)cc1Cl)C1CC1 (centres undefined) | 7.2 (≈ 23.9 µM)
86 | COC(=O)c1c(NC(C)=O)sc(C)c1C | 31 (≈ 136 µM)
87 | CC(COc1ccccc1)N(CCCl)Cc1ccccc1.Cl (centres undefined) | 45.8
88 | CC(NC(=O)COC(=O)Cc1ccc(Cl)cc1)c1ccccc1 (centres undefined) | > 49.8
89 | CC(C)(C)c1ccc2c(c1)N(CC(=O)N1CCCC1)C(=O)CO2 | > 47.5
90 | CCOC(=O)C(=CNc1ccc2c(c1)c1ccccc1n2CC)C(=O)OCC | < 0.4
91 | CN(CCc1cnn(C)c1)Cc1cn(C)nc1-c1ccccc1F | > 49.1
92 | COc1ccc(NC(=O)c2cc3ccccc3cc2OC)cc1 | 5.9 (≈ 19.2 µM)
93 | Cl.O=C(Nc1cccc(Cl)c1)NC1CCN(C2CCCCC2)C1 (centres undefined) | > 53.7
94 | CNc1nc(-c2ccc(OC)cc2)c(-c2ccc(OC)cc2)s1 | 1.8 (≈ 5.51 µM)
95 | Cc1cccc(C)c1NC(=S)N1CCC(c2ccccc2)C1 (centres undefined) | 34.1 (≈ 110 µM)
96 | CN(CCc1ccccc1)Cc1c[nH]c2ccccc12.O=C(O)C(=O)O | > 53.2

Row | SMILES | solubility kinetic [µg/mL]
97 | COc1ccc(NC(=O)c2cc3ccccc3oc2=O)c(OC)c1 | < 0.7
98 | Cc1cc(C)cc(C(=O)Nc2ccc(N3CCCC3)cc2)c1 | 0.7 (≈ 2.38 µM)
99 | CCOC(=O)c1[nH]cnc1C(=O)Nc1ccccc1OC | 10.3 (≈ 35.6 µM)
100 | O=C(O)/C=C/C(=O)Nc1ccc(S(=O)(=O)Nc2nccs2)cc1 | > 53
101 | O=c1cc(O)c2sc(Nc3ccc(F)cc3)nc2[nH]1 | 0.3 (≈ 1.08 µM)
102 | C=CCn1c(C)cc(-c2csc(NC)n2)c1C | 8.5 (≈ 34.4 µM)
103 | O=[N+]([O-])c1cc(CN2CCC(O)CC2)ccc1Cl | 38.9 (≈ 144 µM)
104 | O=[N+]([O-])c1ccc2nc(Cl)nc(-c3ccccc3)c2c1 | 4.8 (≈ 16.8 µM)
105 | COc1ccc(-c2csc(NC(=O)c3ccc(C(C)(C)C)cc3)c2C(=O)O)cc1 | > 61.4
106 | CC1CN(c2ccc([N+](=O)[O-])nc2)CC(C)O1 (centres undefined) | > 35.6
107 | COC(=O)CNC(=O)CCc1nnc(C2(c3ccc(Cl)cc3)CCC2)o1 | > 56.7
108 | NC(=O)c1c(NC(=O)c2ccccc2)sc2c1CCC2 | 1.3 (≈ 4.54 µM)
109 | Cc1ccc(NC(=O)C(=O)NCCc2c[nH]c3ccccc23)cc1C | < 0.2
110 | Cc1ccc(SCc2noc(-c3c(C)noc3C)n2)cc1 | 2.1 (≈ 6.97 µM)
111 | Cc1cc2nc3c(=O)n(C4CCCCC4)c(=O)[nH]c3nc2cc1N | 2.8 (≈ 8.61 µM)
112 | CCc1ccccc1Nc1nc(-c2cccnc2)cs1 | 3.6 (≈ 12.8 µM)
113 | COC(=O)Cn1c2ccc(OC)cc2c2nc(C)sc21 | > 43.6
114 | CC1CCN(C(=O)COc2cccc3c2CCN(C)C3=O)CC1 | > 47.5
115 | O=C(c1ccc2nccnc2c1)N1CCN(c2ccccc2)CC1 | > 47.8
116 | CCN(C(=O)CSc1ccc2ccccc2n1)C1CCCCC1 | 14.6 (≈ 44.4 µM)
117 | CCCC(C)NC(=O)CN1C(=O)c2cccc3cccc1c23 (centres undefined) | 8.3 (≈ 28 µM)
118 | CC(NC(=O)c1cc2cc(F)ccc2[nH]1)c1ccccc1 (centres undefined) | 4.2 (≈ 14.9 µM)
119 | COc1ccc(OC)c(CNc2ccc3c(c2)nc(C)n3C)c1 | 37.1 (≈ 119 µM)

Source: PubChem BioAssay AID1996
